This is an account of results in US20210395256A1, “TYROSINE KINASE INHIBITORS, COMPOSITIONS AND METHODS THERE OF” (Betta Pharmaceuticals Co., Ltd., priority 2018, published 2021).

The structures appear in SMILES notation. A value given as a limit tells only on which side of the number the result lay.

Chain of TrkA kinase (P04629 33-796): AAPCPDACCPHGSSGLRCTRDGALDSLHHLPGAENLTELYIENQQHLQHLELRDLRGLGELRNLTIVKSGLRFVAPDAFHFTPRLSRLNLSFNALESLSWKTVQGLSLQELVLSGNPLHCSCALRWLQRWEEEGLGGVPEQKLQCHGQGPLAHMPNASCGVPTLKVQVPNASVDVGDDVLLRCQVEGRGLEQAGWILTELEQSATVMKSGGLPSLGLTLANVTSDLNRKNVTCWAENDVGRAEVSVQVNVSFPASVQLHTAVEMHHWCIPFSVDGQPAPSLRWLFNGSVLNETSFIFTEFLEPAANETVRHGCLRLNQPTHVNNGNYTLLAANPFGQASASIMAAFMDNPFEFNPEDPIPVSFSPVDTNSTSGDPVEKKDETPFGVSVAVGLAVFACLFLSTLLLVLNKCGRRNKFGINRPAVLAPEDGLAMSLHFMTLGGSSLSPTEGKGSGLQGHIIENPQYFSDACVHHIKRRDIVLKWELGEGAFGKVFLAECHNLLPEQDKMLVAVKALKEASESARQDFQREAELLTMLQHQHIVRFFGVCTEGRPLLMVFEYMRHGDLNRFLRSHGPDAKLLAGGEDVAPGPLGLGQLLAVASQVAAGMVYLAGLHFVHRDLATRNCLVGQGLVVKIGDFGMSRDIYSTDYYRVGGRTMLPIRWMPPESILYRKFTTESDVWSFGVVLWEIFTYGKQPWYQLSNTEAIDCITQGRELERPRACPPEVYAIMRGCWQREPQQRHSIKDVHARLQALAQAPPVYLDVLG

One test has as its target TrkA kinase (Homo sapiens, UniProt P04629). Put plainly: TrkA kinase assay (mobility shift assay). Format: biochemical. As to conditions: class symbols; read-out: Trk A Kinase IC50. In a few lines:
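Ten-point compound series was preincubated 10 min at room temperature with TrkA, then FAM-peptide plus ATP added in HEPES pH 7.5/Brij-35 buffer and reacted at 28 °C before EDTA quench.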
A word on the IC50: it is the point on the concentration scale where inhibition reaches its midpoint. With `Cc1ccc2nc(-c3cnn4ccc(N5CCC[C@@H]5c5cc(F)ccc5F)nc34)[nH]c2n1` [Compound 106, (R)-2-(5-(2-(2,5-difluorophenyl)pyrrolidin-1-yl)pyrazolo[1,5-a]pyrimidin-3-yl)-5-methyl-3H-imidazo[4,5-b]pyridine], the IC50 is no more than 10 nM.
In the case of `N#Cc1ccc2nc(-c3cnn4ccc(N5CCC[C@@H]5c5cc(F)ccc5F)nc34)[nH]c2c1` [Compound 107, (R)-2-(5-(2-(2,5-difluorophenyl)pyrrolidin-1-yl)pyrazolo[1,5-a]pyrimidin-3-yl)-1H-benzo[d]imidazole-6-carbonitrile], the IC50 is no more than 10 nM.
Still for that read-out and setting: next, `Fc1ccc(F)c([C@H]2CCCN2c2ccn3ncc(-c4nc5ccc(F)nc5[nH]4)c3n2)c1` [Compound 108, (R)-2-(5-(2-(2,5-difluorophenyl)pyrrolidin-1-yl)pyrazolo[1,5-a]pyrimidin-3-yl)-5-fluoro-3H-imidazo[4,5-b]pyridine]: no more than 10 nM.
Turning to `Fc1ccc(F)c([C@H]2CCCN2c2ccn3ncc(-c4nc5cc(OC(F)F)c(OC(F)F)cc5[nH]4)c3n2)c1` [Compound 109, (R)-3-(5,6-bis(difluoromethoxy)-1H-benzo[d]imidazol-2-yl)-5-(2-(2,5-difluorophenyl)pyrrolidin-1-yl)pyrazolo[1,5-a]pyrimidine], the IC50 is no more than 10 nM.
`COC(=O)Oc1cc2nc(-c3cnn4ccc(N5CCC[C@@H]5c5cc(F)ccc5F)nc34)[nH]c2cc1OC(=O)OC` [Compound 115, (R)-2-(5-(2-(2,5-difluorophenyl)pyrrolidin-1-yl)pyrazolo[1,5-a]pyrimidin-3-yl)-1H-benzo[d]imidazole-5,6-diyl dimethyl bis(carbonate)]: the concentration for half-maximal inhibition (IC50) was greater than 50 nM.
As to `Fc1ccc(F)c([C@H]2CCCN2c2ccn3ncc(-c4nc5ccc(SC(F)(F)F)cc5[nH]4)c3n2)c1` [Compound 116, (R)-5-(2-(2,5-difluorophenyl)pyrrolidin-1-yl)-3-(6-((trifluoromethyl)thio)-1H-benzo[d]imidazol-2-yl)pyrazolo[1,5-a]pyrimidine], the IC50 is 10 to 50 nM.
Same read-out and setting: next, `Oc1cc2nc(-c3cnn4ccc(N5CCC[C@@H]5c5cc(F)ccc5F)nc34)[nH]c2cc1O` [Compound 117, (R)-2-(5-(2-(2,5-difluorophenyl)pyrrolidin-1-yl)pyrazolo[1,5-a]pyrimidin-3-yl)-1H-benzo[d]imidazole-5,6-diol]: no more than 10 nM.
As to `Fc1ccc(F)c([C@H]2CCCN2c2ccn3ncc(-c4nc5cc(O[C@@H]6CCOC6)c(O[C@H]6CCOC6)cc5[nH]4)c3n2)c1` [Compound 118, 5-((R)-2-(2,5-difluorophenyl)pyrrolidin-1-yl)-3-(5-(((R)-tetrahydrofuran-3-yl)oxy)-6-(((S)-tetrahydrofuran-3-yl)oxy)-1H-benzo[d]imidazol-2-yl)pyrazolo[1,5-a]pyrimidine], the concentration for half-maximal inhibition (IC50) lay in the range of 10 to 50 nM.
`N#CCOc1cc2nc(-c3cnn4ccc(N5CCC[C@@H]5c5cc(F)ccc5F)nc34)[nH]c2cc1OCC#N` [Compound 119, (R)-2,2′-((2-(5-(2-(2,5-difluorophenyl)pyrrolidin-1-yl)pyrazolo[1,5-a]pyrimidin-3-yl)-1H-benzo[d]imidazole-5,6-diyl)bis(oxy))diacetonitrile]: the IC50 was no more than 10 nM.
As to `COc1cc2nc(-c3cnn4ccc(N5CCC[C@@H]5c5cc(F)ccc5F)nc34)oc2cc1OC` [Compound 120, (R)-2-(5-(2-(2,5-difluorophenyl)pyrrolidin-1-yl)pyrazolo[1,5-a]pyrimidin-3-yl)-5,6-dimethoxybenzo[d]oxazole], the half-inhibitory concentration (IC50) was no more than 10 nM.
Still for that read-out and setting: as for `Fc1ccc(F)c([C@H]2CCCN2c2ccn3ncc(-c4nc5nc6ccccc6nc5[nH]4)c3n2)c1` [Compound 121, (R)-2-(5-(2-(2,5-difluorophenyl)pyrrolidin-1-yl)pyrazolo[1,5-a]pyrimidin-3-yl)-1H-imidazo[4,5-b]quinoxaline], the figure is 10 to 50 nM; as for `Cc1ccnc2[nH]c(-c3cnn4ccc(N5CCC[C@@H]5c5cc(F)ccc5F)nc34)nc12` [Compound 122, (R)-2-(5-(2-(2,5-difluorophenyl)pyrrolidin-1-yl)pyrazolo[1,5-a]pyrimidin-3-yl)-7-methyl-3H-imidazo[4,5-b]pyridine], 10 to 50 nM.
In the case of `Cn1c(-c2cnn3ccc(N4CCC[C@@H]4c4cc(F)ccc4F)nc23)nc2cnccc21` [Compound 124, (R)-2-(5-(2-(2,5-difluorophenyl)pyrrolidin-1-yl)pyrazolo[1,5-a]pyrimidin-3-yl)-1-methyl-1H-imidazo[4,5-c]pyridine], the half-maximal inhibitory concentration (IC50) was 10 to 50 nM.
`COc1ccc2nc(-c3cnn4ccc(N5CCC[C@@H]5c5cc(F)ccc5F)nc34)[nH]c2c1F` [Compound 127, (R)-5-(2-(2,5-difluorophenyl)pyrrolidin-1-yl)-3-(7-fluoro-6-methoxy-1H-benzo[d]imidazol-2-yl)pyrazolo[1,5-a]pyrimidine]: the IC50 is no more than 10 nM.
`Fc1ccc(F)c([C@H]2CCCN2c2ccn3ncc(-c4nc5nccnc5[nH]4)c3n2)c1` [Compound 128, (R)-2-(5-(2-(2,5-difluorophenyl)pyrrolidin-1-yl)pyrazolo[1,5-a]pyrimidin-3-yl)-1H-imidazo[4,5-b]pyrazine]: the 50% inhibitory concentration (IC50) was no more than 10 nM.
For `Fc1ccc(F)c([C@H]2CCCN2c2ccn3ncc(-c4nc5ncc(Br)nc5[nH]4)c3n2)c1` [Compound 129, (R)-6-bromo-2-(5-(2-(2,5-difluorophenyl)pyrrolidin-1-yl)pyrazolo[1,5-a]pyrimidin-3-yl)-1H-imidazo[4,5-b]pyrazine], the 50% inhibitory concentration (IC50) was no more than 10 nM.
Take `Fc1ccc(F)c([C@H]2CCCN2c2ccn3ncc(-c4nc5cc6nc7ccccc7nc6cc5[nH]4)c3n2)c1` [Compound 130, (R)-2-(5-(2-(2,5-difluorophenyl)pyrrolidin-1-yl)pyrazolo[1,5-a]pyrimidin-3-yl)-1H-imidazo[4,5-b]phenazine]: the IC50 is greater than 50 nM.
With `Fc1ccc(F)c([C@H]2CCCN2c2ccn3ncc(-c4nc5cc6c(cc5o4)OCO6)c3n2)c1` [Compound 131, (R)-6-(5-(2-(2,5-difluorophenyl)pyrrolidin-1-yl)pyrazolo[1,5-a]pyrimidin-3-yl)-[1,3]dioxolo[4′,5′:4,5]benzo[1,2-d]oxazole], the IC50 lay in the range of 10 to 50 nM.
Consider `OC1CCc2nc(-c3cnn4ccc(N5CCC[C@@H]5c5cc(F)ccc5F)nc34)nn2C1` (stereo partly drawn) [Compound 132, 2-(5-((R)-2-(2,5-difluorophenyl)pyrrolidin-1-yl)pyrazolo[1,5-a]pyrimidin-3-yl)-5,6,7,8-tetrahydro-[1,2,4]triazolo[1,5-a]pyridin-6-ol], for which the IC50 was in the range of 10 to 50 nM.
Same read-out and setting: as for `N#Cc1ccc2[nH]c(-c3cnn4ccc(N5CCC[C@@H]5c5cc(F)ccc5F)nc34)cc2c1` [Compound 133, (R)-2-(5-(2-(2,5-difluorophenyl)pyrrolidin-1-yl)pyrazolo[1,5-a]pyrimidin-3-yl)-1H-indole-5-carbonitrile], the figure is 10 to 50 nM; as for `OCc1cc2nc(-c3cnn4ccc(N5CCC[C@@H]5c5cc(F)ccc5F)nc34)[nH]c2cn1` [Compound 135, (R)-(2-(5-(2-(2,5-difluorophenyl)pyrrolidin-1-yl)pyrazolo[1,5-a]pyrimidin-3-yl)-3H-imidazo[4,5-c]pyridin-6-yl)methanol], no more than 10 nM.

The same test, now with this note: numeric values; read-out: Trk A Kinase IC50.
On to `Fc1ccc(F)c([C@H]2CCCN2c2ccn3ncc(-c4nc5ncc(C(F)(F)F)cc5[nH]4)c3n2)c1` [Compound 110, (R)-2-(5-(2-(2,5-difluorophenyl)pyrrolidin-1-yl)pyrazolo[1,5-a]pyrimidin-3-yl)-6-(trifluoromethyl)-1H-imidazo[4,5-b]pyridine], for which the IC50 is 1.9 nM.
Regarding `Fc1ccc(F)c([C@H]2CCCN2c2ccn3ncc(-c4nc5cc(F)cc(F)c5o4)c3n2)c1` [Compound 111, (R)-2-(5-(2-(2,5-difluorophenyl)pyrrolidin-1-yl)pyrazolo[1,5-a]pyrimidin-3-yl)-5,7-difluorobenzo[d]oxazole], the IC50 came to 5.3 nM.
Turning to `Fc1ccc(F)c([C@H]2CCCN2c2ccn3ncc(-c4nc5cccc(OC(F)(F)F)c5[nH]4)c3n2)c1` [Compound 113, (R)-5-(2-(2,5-difluorophenyl)pyrrolidin-1-yl)-3-(7-(trifluoromethoxy)-1H-benzo[d]imidazol-2-yl)pyrazolo[1,5-a]pyrimidine], the IC50 was found to be 6.7 nM.
As for `Fc1ccc(F)c([C@H]2CCCN2c2ccn3ncc(-c4nc5ccc(C(F)(F)F)nc5[nH]4)c3n2)c1` [Compound 114, (R)-2-(5-(2-(2,5-difluorophenyl)pyrrolidin-1-yl)pyrazolo[1,5-a]pyrimidin-3-yl)-5-(trifluoromethyl)-3H-imidazo[4,5-b]pyridine], the IC50 amounted to 3.8 nM.
Regarding `Fc1ccc(F)c([C@H]2CCCN2c2ccn3ncc(-c4nc5cc6c(cc5[nH]4)OCCCO6)c3n2)c1` [Compound 134, (R)-2-(5-(2-(2,5-difluorophenyl)pyrrolidin-1-yl)pyrazolo[1,5-a]pyrimidin-3-yl)-7,8-dihydro-1H,6H-[1,4]dioxepino[2′,3′:4,5]benzo[1,2-d]imidazole], the IC50 turned out to be 1.1 nM.
Same read-out and setting: next, `Fc1ccc(F)c([C@H]2CCCN2c2ccn3ncc(-c4nc5cc(F)c(F)cc5[nH]4)c3n2)c1` [Compound 136, (R)-3-(5,6-difluoro-1H-benzo[d]imidazol-2-yl)-5-(2-(2,5-difluorophenyl)pyrrolidin-1-yl)pyrazolo[1,5-a]pyrimidine]: 1.9 nM.
Take `COC(=O)c1cc2[nH]c(-c3cnn4ccc(N5CCC[C@@H]5c5cc(F)ccc5F)nc34)nc2c(F)c1F` [Compound 137, methyl (R)-2-(5-(2-(2,5-difluorophenyl)pyrrolidin-1-yl)pyrazolo[1,5-a]pyrimidin-3-yl)-4,5-difluoro-1H-benzo[d]imidazole-6-carboxylate]: the half-inhibitory concentration (IC50) was 2.65 nM.
`O=C(O)c1cc2[nH]c(-c3cnn4ccc(N5CCC[C@@H]5c5cc(F)ccc5F)nc34)nc2c(F)c1F` [Compound 138, (R)-2-(5-(2-(2,5-difluorophenyl)pyrrolidin-1-yl)pyrazolo[1,5-a]pyrimidin-3-yl)-4,5-difluoro-1H-benzo[d]imidazole-6-carboxylic acid]: the IC50 was 0.48 nM.
